One experiment concerns sCD146. The experiment is described as follows: ELISA of sCD146 protein in 786/786R cell supernatants. It counts as cell-based. Particulars: 786R cells; 10 μg/ml, 48 hr. In general terms: ELISA stands for enzyme-linked immunosorbent assay.
Experiment [1] can be described thus: Survival (PFS, OS) of metastatic ccRCC patients in the prospective cohort (SUVEGIL and TORAVA trials), split by sCD146 variation. Type of experiment: in vivo, human. The text has this:
Eligible patients for SUVEGIL and TORAVA trials were at least 18 years of age and had metastatic clear cell renal cell carcinoma (ccRCC) histologically confirmed, with the presence of measurable disease according to Response Evaluation Criteria in Solid Tumors (RECIST) v1.1. […] Patients were ineligible if they had symptomatic or uncontrolled brain metastases, an estimated lifetime less than 3 months, uncontrolled hypertension or clinically significant cardiovascular events (heart failure, prolongation of the QTinterval), history of other primary cancer. All patients gave written informed consent.
The prospective cohort includes patients from the SUVEGIL and TORAVA trials.
The SUVEGIL trial (clinicaltrial.gov, NCT00943839) was a multicenter prospective single-arm study. […] Courses repeat every 6 weeks in the absence of disease progression or unacceptable toxicity.
The TORAVA trial (clinicaltrial.gov, NCT00619268) was a randomized prospective study. Patient characteristics and results have been previously described (Negrier et al, 2011).
The % variation of plasmatic level of sCD146 was correlated with OS and PFS, defined respectively as the time from inclusion in the trial to death from all causes (for OS) and to progression, treatment cessation, or death (for PFS), censored at last follow-up for those still alive or who have not progressed.
(§1) PFS was defined as the time between blood sample collection and progression, or death from any cause, censoring those alive and progression free at last follow-up. OS was defined as the time from blood sample collection to the date of death from any cause, censoring those alive at last follow-up.
(§2) The % variation of sCD146 between diagnosis and after 1 cycle of suntinib cut-off point was determined at 120%. Kaplan Meier method was used to produce survival curves and analyses of censored data were performed using Cox models.

Experiment [2] can be described thus: PFS of patients in the retrospective validation cohort, split by sCD146 variation. It counts as in vivo, human. Particulars: retrospective/confirmation cohort. Here is the method:
13 patients from the HEPG (France) (50 mg/day, once daily for four weeks) were analyzed retrospectively.
as §1, §2

For a further experiment, the system named is HUVEC. The experiment can be described thus: Cell viability/metabolism (XTT) in HUVEC. Conditions: 48 h. It counts as cell-based. Here is the method: FIG. 7. Regulation of expression of CD146 and angiomotin (Amot) is differently regulated in endothelial cells. […] CD146 (A) and angiomotin (B) were analyzed by qPCR. […] The cell metabolism was measured by XTT assay. […] The cell metabolism was measured by XTT assay. Results are represented as the mean of three independent experiments±SEM. * p<0.05, ** p<0.01, *** p<0.001.
(§3) Fifty microliters of sodium 3′-[1-phenylaminocarbonyl)-3,4-tetrazolium]-bis(4-methoxy-6-nitro) benzene sulfonic acid hydrate (XTT) reagent was added to each well. The assay is based on the cleavage of the yellow tetrazolium salt XTT to form an orange formazan dye by metabolically active cells. The absorbance of the formazan product, reflecting cell viability, was measured at 490 nm. Each assay was performed in quadruplicate.
For orientation: Formazan colour is commonly taken as a measure of viable cells.

The next experiment relates to 786 cells. The experiment is described as follows: Cell viability/metabolism (XTT) in 786 cells. It counts as cell-based. Conditions: sCD146 50 and 100 ng/ml, 48 h. Here is the method:
FIG. 4. […] The mRNA levels of CD146 total (A), long (B) and short forms (C) and angiomotin (E) were evaluated by qPCR. D, sCD146 protein in cell supernatants was evaluated by ELISA. […] The cell metabolism was measured by XTT assay. Results are represented as the mean of three independent experiments±SEM.* p<0.05, ** p<0.01, *** p<0.001.
as §3

Where [3] appears, read: patients with sCD146 plasmatic level increase ≥120% between diagnosis and first cycle of treatment.
Where [4] appears, read: patients with sCD146 variation <120% between diagnosis and first cycle of treatment.

For the molecule bevacizumab, in the experiment with sCD146, the sCD146 secretion entry was “no increase in sCD146 secretion”. The results for the “median OS” value in experiment [1] (patients with sCD146 <120%) and in experiment [1] (patients with sCD146 ≥120%) were 24.4 months and 24.1 months, respectively. The “median PFS” value turned out to be 10.5 months in experiment [1] (setting [3]) and 10.7 months in experiment [1] (setting [4]).

Regarding `CCN(CC)CCNC(=O)c1c(C)[nH]c(/C=C2\C(=O)Nc3ccc(F)cc32)c1C` [sunitinib], the PFS is 24.8 months in experiment [2] (patients with modulation of sCD146 <120%) and 2.3 months in experiment [2] (patients with sCD146 ≥120%). Moreover, in the experiment with HUVEC (HUVEC, 1 or 2 μM), the “decrease in cell proliferation” value is on record as “about 50%”. The “median PFS” value is reported as 5.7 months in experiment [1] (setting [3]) and 20.5 months in experiment [1] (setting [4]). In experiment [1] (patients with sCD146 ≥120%), the “median OS” value came out at 11 months.

As to “sCD146: soluble form of CD146 generated by shedding of the membrane form; used as recombinant protein in cell assays”, the “effect on sunitinib-dependent decrease of cell metabolism” value in the experiment on 786 cells (786 cells treated with 2.5 or 5 μM sunitinib) is listed as “prevents sunitinib-dependent decreased cell metabolism”. Also, the cell metabolism entry with 786 cells (786 cells) is “increased cell metabolism at both concentrations”. For the same molecule, the protection from sunitinib entry in the experiment on HUVEC (HUVEC treated with sunitinib, recombinant sCD146 50 or 100 ng/ml) is recorded as “did not protect HUVEC from sunitinib”. In addition, the “proliferation of HUVEC” value with HUVEC (HUVEC, recombinant sCD146 50 or 100 ng/ml) is recorded as “stimulated the proliferation of HUVEC”.

These data come from US20200232989A1 (UNIVERSITE D'AIX-MARSEILLE, priority 2017, published 2020).
